This is an account of results in PubChem BioAssay AID1996.

≈ marks a conversion by molar mass, not a printed value. Bounds are passed on as bounds.

The conditions of this data set: buffer; pH 7.4; 200.0 µM.
`CCOC(=O)C1CCCN(CCC(=O)Nc2cc(C)cc(C)c2)C1` (stereo not drawn): the kinetic solubility is above 49.9 µg/mL.
On to `C=CCNC(=O)C(=O)Nc1cc2c3c(c1)CCC(=O)N3CCC2`, for which the solubility (kinetic) was above 47 µg/mL.
In the case of `COc1ccccc1CNC(=O)CNC(=O)c1sc2ccccc2c1Cl` it was 7.6 µg/mL (≈ 19.5 µM).
`NC(=S)C1COc2ccccc2O1` (stereo not drawn) returned a kinetic solubility above 29.3 µg/mL.
Under `CN1CCN(c2ccccc2NC(=O)c2c(F)cccc2F)CC1` stands above 49.7 µg/mL; under `Cc1c(C)n(-c2ccc(Cl)cc2)c2ncnc(N)c12`, 7.4 µg/mL (≈ 27.1 µM); under `CCN(CC)CCOC(=O)C(c1ccccc1)C1CCCCC1.Cl` (stereo not drawn), above 53.1 µg/mL.
In turn, `O=[N+]([O-])c1ccc(SCc2ccco2)cc1N1CCOCC1` showed a solubility (kinetic) of 13.2 µg/mL (≈ 41.2 µM).
In the case of `CCOc1ccc(C2NC(=O)c3ccccc3O2)cc1OC` (stereo not drawn) it was 3.3 µg/mL (≈ 11 µM); in that of `CC(C)NC(=O)c1cc2c(=O)n3ccccc3nc2s1`, below 0.2 µg/mL.
In the case of `NC(=O)COc1ccc(NC(=O)CC23CC4CC(CC(C4)C2)C3)cc1` it was 8.9 µg/mL (≈ 26 µM).
Under `O=C(O)c1ccc(NC(=S)NC(=O)c2cccnc2)cc1` stands above 45.2 µg/mL.
On to `O=C(COc1ccc(-c2nnco2)cc1)N1CCOCC1`, for which the solubility (kinetic) was above 43.4 µg/mL.
In turn, `O=C(O)c1cnn2c(-c3ccccc3)ccnc12` gave a kinetic solubility above 35.9 µg/mL.
`CC1CC(C)CN(S(=O)(=O)c2cccc3nonc23)C1` (stereo not drawn): the solubility (kinetic) came to 5.5 µg/mL (≈ 18.6 µM).
`CCOc1ccc(C2=CSC3=NCCN23)cc1` returned a solubility (kinetic) of 22.9 µg/mL (≈ 93 µM).
Under `Cc1nnc(N2C(=O)c3ccc(Br)cc3C2=O)s1` stands above 48.6 µg/mL; under `Cc1ccc(NC(=O)C2CCCN2C(=O)NC2CCCCC2)cc1F` (stereo not drawn), 0.9 µg/mL (≈ 2.59 µM).
In the case of `Cc1ccc2[nH]c(C(=O)NCCN3CCCC3)cc2c1.Cl` it was above 46.2 µg/mL.
In turn, `CCN(CC)S(=O)(=O)c1ccc(O)c(C(=O)OCC(=O)NC23CC4CC(CC(C4)C2)C3)c1` registered a solubility (kinetic) of 25.5 µg/mL (≈ 54.9 µM).
In the case of `O=S(=O)(Cc1ncc(C(F)(F)F)cc1Cl)c1ccccc1` it was above 50.4 µg/mL.
Under `CNC(=O)Nc1cccc(-c2ccnc(C)n2)c1` stands 27.5 µg/mL (≈ 114 µM); under `COc1ccc(OCC(=O)OCC(=O)NC2CC2)cc1`, above 41.9 µg/mL.
Under `COC(=O)c1ccccc1NC(=O)CN1CCC(C)CC1` stands 30.8 µg/mL (≈ 106 µM).
For `O=C(CN1C(=O)c2cccc3cccc(c23)C1=O)N1CCOCC1`, the solubility (kinetic) is above 48.7 µg/mL.
Compound `COc1cc(CCC(=O)NCc2ccc(F)cc2)cc(OC)c1OC` registered a solubility (kinetic) above 52.1 µg/mL.
In the case of `Cc1cc(C(C)(C)C)oc1C(=O)OCC(=O)NC1CCCCC1` it was 1.1 µg/mL (≈ 3.42 µM); in that of `COc1ccc(C(=O)NCCNc2ccccc2[N+](=O)[O-])cc1`, 36.3 µg/mL (≈ 115 µM); in that of `Oc1ccc2ccccc2c1CNc1ccc(Br)cc1`, 5.5 µg/mL (≈ 16.8 µM).
Under `CCCc1ccc(NS(=O)(=O)c2c(C)oc(C)c2C(=O)OC)cc1` stands 7.4 µg/mL (≈ 21.1 µM); under `O=C(/C=C\c1ccco1)NC(=S)Nc1ccccc1O`, 42.6 µg/mL (≈ 148 µM); under `COc1ccc(/C=C/C(=O)OCC(=O)NC2CCCC(C)C2C)cc1` (stereo not drawn), 6.1 µg/mL (≈ 17.7 µM).
In the case of `Cc1cccc(OCC(=O)NCCNC(=O)c2cccnc2)c1`, the solubility (kinetic) is above 47 µg/mL.
Regarding `CCC(C(=O)Nc1ncc(C)s1)c1ccccc1` (stereo not drawn), the kinetic solubility turned out to be 2.9 µg/mL (≈ 11.1 µM).
The compound `COc1cc2c(cc1OC)C(c1ccccc1F)NCC2` (stereo not drawn) had a kinetic solubility above 43.1 µg/mL.
In the case of `COC(=O)c1ccc(CN2C(=O)NC(CC(C)C)C2=O)cc1` (stereo not drawn) it was above 45.7 µg/mL.
Under `CCOc1ccccc1C(=O)OCC(=O)NCc1ccc2c(c1)OCO2` stands above 53.6 µg/mL.
In the case of `CC1CCCCC12NC(=O)N(CC(=O)N1CCN(c3ccccc3)CC1)C2=O` (stereo not drawn) it was above 57.7 µg/mL; in that of `CCOc1ccc(C(=O)COC(=O)CNC(=O)C2CCCCC2)cc1`, 9.5 µg/mL (≈ 27.3 µM).
`O=C(c1ccccc1F)N1CCN(c2ccccn2)CC1` gave a solubility (kinetic) above 42.8 µg/mL.
Under `O=C(c1cc2ccccc2cc1O)N1CCN(c2ccccn2)CC1` stands 32.9 µg/mL (≈ 98.7 µM); under `COc1ccc(C2NC(=O)C(C#N)=C(S)N2c2ccccc2)cc1OC` (stereo not drawn), above 55.1 µg/mL; under `Cl.c1cncc(CNCc2ccco2)c1`, above 33.7 µg/mL.
In turn, `O=C1NC(=S)N/C1=C\c1cccnc1` displayed a kinetic solubility above 30.8 µg/mL.
Under `CCN(CC)S(=O)(=O)c1ccc(/C=C/C(=O)OCC(=O)NCc2ccco2)cc1` stands 17.3 µg/mL (≈ 41.1 µM).
Under `CCOC(=O)/C(C#N)=C/c1cccn1-c1ccc(Cl)cc1` stands below 0.3 µg/mL; under `COc1ccccc1-c1cc(C(=O)N2CCCc3ccccc32)no1`, 3.1 µg/mL (≈ 9.27 µM); under `CN(C)CCCNc1nc(N)c([N+](=O)[O-])c(NC2CCCCC2)n1`, above 50.6 µg/mL.
Under `OC(CNCCNc1ncccc1C(F)(F)F)COc1ccc(F)cc1` (stereo not drawn) stands 50.9 µg/mL (≈ 136 µM); under `COc1ccc(C(=O)N/C(=C\c2ccc(SC)cc2)C(=O)NCCCn2ccnc2)cc1OC`, 12.3 µg/mL (≈ 25.6 µM).
In the case of `O=c1[nH][nH]c2ccccc2c1=O`, the solubility (kinetic) was above 24.3 µg/mL.
In the case of `Cc1ccc(C(=O)NCc2ccc3c(c2)OCO3)cc1C`, the kinetic solubility was 31.7 µg/mL (≈ 112 µM).
Under `Cc1ccc(NC(=O)CNC(=O)c2ccc(C(C)(C)C)cc2)cc1S(=O)(=O)N1CCOCC1` stands 16.1 µg/mL (≈ 34 µM); under `COc1ccccc1NS(=O)(=O)c1cccc2nsnc12`, 35 µg/mL (≈ 109 µM); under `CC(=O)c1cn(C)c(=O)c2ccccc12`, above 30.2 µg/mL.
Under `O=C(COC(=O)C1CC(=O)N(Cc2ccco2)C1)Nc1ccc(F)cc1F` (stereo not drawn) stands above 56.7 µg/mL; under `O=C(CNC(=O)c1ccc(Cl)cc1)NCc1ccccn1`, above 45.6 µg/mL.
The compound `CCN1CCCC1CNC(=O)C(=O)Nc1ccccc1` (stereo not drawn) showed a kinetic solubility above 41.3 µg/mL.
Under `O=C(O)C1CCN(c2ccc([N+](=O)[O-])cc2[N+](=O)[O-])CC1` stands above 44.3 µg/mL; under `Cc1c(NS(=O)(=O)c2cc(C(=O)N3CCCC(C)C3)ccc2Cl)c(=O)n(-c2ccccc2)n1C` (stereo not drawn), above 75.5 µg/mL.
Under `O=[N+]([O-])c1ccc(NCc2ccccc2N2CCC(CO)CC2)nc1` stands 12.4 µg/mL (≈ 36.2 µM); under `C=CCNC(=O)c1ccc([N+](=O)[O-])c(Cl)c1`, above 36.1 µg/mL.
Under `COCCNc1nc(-c2cc(C)c(C)cc2C)cs1.Cl` stands 35.4 µg/mL; under `CCOc1cccc(NC(=O)/C(C#N)=C/c2cccnc2)c1`, 31.7 µg/mL (≈ 108 µM); under `OCc1nc2c(ccc3ccccc32)[nH]1`, above 29.7 µg/mL.
`CNS(=O)(=O)c1ccc(NC(=O)c2csc(C)c2)cc1`: the solubility (kinetic) came to 6.9 µg/mL (≈ 22.2 µM).
With `COc1cccc(Nc2nc(C)nc3c2oc2ccccc23)c1`, the kinetic solubility is 0.3 µg/mL (≈ 0.983 µM).
`Cc1cc(C)c(S(=O)(=O)NCC(=O)NCc2ccccn2)c(C)c1` showed a solubility (kinetic) above 52.1 µg/mL.
`COC(=O)c1ccccc1NC(=O)c1ccc2c(c1)CC(C)O2` (stereo not drawn): the kinetic solubility was determined as 2.4 µg/mL (≈ 7.71 µM).
Under `Cc1ccc(NC(=S)NC(C)(C)C)c([N+](=O)[O-])c1` stands 8.2 µg/mL (≈ 30.7 µM).
The compound `CC(=O)c1ccc(NC(=O)COC(=O)Cc2ccsc2)cc1` had a solubility (kinetic) above 47.6 µg/mL.
`COc1cccc(-c2cc(C(=O)N3CCOCC3)no2)c1` gave a solubility (kinetic) above 43.2 µg/mL.
Regarding `COc1cc(NC(=O)COC(=O)CCc2nc3ccccc3c(=O)[nH]2)cc(OC)c1`, the kinetic solubility came to 60.7 µg/mL (≈ 148 µM).
Under `O=C1NC(=O)C(Sc2ccccc2[N+](=O)[O-])C(=O)N1` stands above 42.2 µg/mL; under `COc1ccc2oc(=Nc3cc(F)ccc3F)c(C(N)=O)cc2c1`, below 0.4 µg/mL; under `CC(C)CCNC(=O)c1ccc(-n2cnc3cccnc32)cc1`, above 46.3 µg/mL.
`CC1C(=O)Nc2ccccc2N1C(=O)c1c(F)cccc1F` (stereo not drawn) yielded a kinetic solubility above 45.3 µg/mL.
For `N#Cc1c(-c2ccc(F)cc2)c2c([nH]c1=O)-c1ccccc1OC2`, the solubility (kinetic) turned out to be 1.2 µg/mL (≈ 3.77 µM).
In the case of `Cc1ccc(CNCC(O)c2ccccc2)s1.Cl` (stereo not drawn) it was above 42.6 µg/mL.
In the case of `CC(C)OC(=O)NCCOC(=O)Nc1ccccc1Cl` it was above 45.1 µg/mL.
Under `O=[N+]([O-])c1ccc(N2CCSCC2)cc1O` stands 4.1 µg/mL (≈ 17.1 µM); under `CCOc1ccccc1NC(=O)Cn1c(=O)sc2ccccc21`, 1.2 µg/mL (≈ 3.65 µM); under `CCCCn1c(O)c(C(C)=NCCc2c[nH]c3ccccc23)c(=O)[nH]c1=O`, 0.4 µg/mL (≈ 1.09 µM).
Compound `CCCCn1c(=O)c(C(C)=O)c(O)c2ccccc21` came in with a solubility (kinetic) of 26.6 µg/mL (≈ 103 µM).
`Cc1ccc2nc(NCCC(=O)O)nc(-c3ccccc3)c2c1` displayed a solubility (kinetic) above 46.1 µg/mL.
On to `COc1ccccc1NC(=O)CC1CCCC1`, for which the solubility (kinetic) was above 35 µg/mL.
Under `CCCOCCc1nnc(N)s1` stands above 28.1 µg/mL; under `CCNc1nc(OC)nc(SCC(=O)Nc2ccccc2)n1`, above 47.9 µg/mL.
Regarding `CN(C)C(CNS(=O)(=O)c1cc([N+](=O)[O-])ccc1Cl)c1ccco1.Cl` (stereo not drawn), the kinetic solubility is 20.6 µg/mL.
With `Cc1nn(CC(=O)N2CCN(C)CC2)c(=O)c2ccccc12`, the kinetic solubility is above 45.1 µg/mL.
For `Cc1nc(Nc2ccc(O)cc2)c2c3c(sc2n1)CCCC3`, the kinetic solubility was found to be 12.9 µg/mL (≈ 41.4 µM).
`COc1ccccc1NC(=O)COC(=O)c1cc(C)oc1C` gave a kinetic solubility of 6.7 µg/mL (≈ 22.1 µM).
In turn, `COc1ccc(Cl)cc1NC(=O)C1CCN(S(C)(=O)=O)CC1` came in with a solubility (kinetic) above 52 µg/mL.
In the case of `Cc1ccc(-c2cc(C(=O)N3CCC4(CC3)OCCO4)no2)cc1`, the kinetic solubility stood at 44 µg/mL (≈ 134 µM).
Under `CCCCOc1ccc(/C=C(\C(=O)O)c2ccc(S(=O)(=O)N3CCCC3)s2)cc1` stands above 65.3 µg/mL.
For `Cc1cc(NC(=O)CSc2nc(C)c(C)n2CC(C)C)no1`, the solubility (kinetic) is above 48.4 µg/mL.
In the case of `CC(Cc1ccccc1)N1Cc2ccccc2C1` (stereo not drawn), the kinetic solubility is 35.3 µg/mL (≈ 149 µM).
In the case of `Cc1onc(-c2c(F)cccc2Cl)c1C(=O)NCCN1CCNC1=O`, the kinetic solubility was above 55 µg/mL.
In turn, `Cc1cc(F)ccc1NCc1ccc([N+](=O)[O-])cc1` yielded a kinetic solubility of 0.3 µg/mL (≈ 1.15 µM).
In the case of `CC1(c2ccc(Cl)cc2)NC(=O)N(CC(=O)NC2CCCCC2)C1=O` (stereo not drawn) it was above 54.6 µg/mL; in that of `CN1CCN(NC(=O)NC2CCCCC2)CC1`, above 36.1 µg/mL; in that of `O=S(=O)(Nc1ccc(S(=O)(=O)N2CCCC2)cc1)c1ccc(F)cc1F`, above 60.4 µg/mL.
`CCn1cnc2c(oc3ccccc32)c1=O` registered a solubility (kinetic) of 31.9 µg/mL (≈ 149 µM).
